Assay results from patent EP1685120B1, “COLOURING HYDROSOLUBLE YELLOW PREPARATION DERIVED FROM DIHYDROCHALCONES” (INSTITUT NATIONAL DE LA RECHERCHE AGRONOMIQUE, priority 2003, dated 2005).
“And” between values parts separate entries of the source, which are not always exact repeats. Equal values may be shown once. Read-outs that look alike come from different tables or passages of the source.

What was measured:
[1] = DPPH method, antioxidant capacity in methanolic medium (after Brand-Williams et al., 1995); format: biochemical; details: for TEAC (Trolox équivalent antioxidant capacity): DPPH, relative to Trolox; for capacité antioxydante: overall conclusion in words from DPPH and FRAP
From the text: (§1) Pour comparaison ou pour l'expression des résultats, les capacités antioxydantes des composés suivants ont été également mesurées : vitamine C (acide ascorbique), Trolox (analogue hydrosoluble de la vitamine E), (-)-épicatéchine, et phloridzine.
Les résultats sont présentés dans les tableaux II et III ci dessous.

[2] = FRAP method (Ferric Reducing Antioxidant Power), aqueous medium, 10 min incubation (after Pulido et al., 2000); format: biochemical; details: for EC1: antioxidant concentration with reducing power equivalent to 1 mmol/L FeSO4 7 H2O, 10 min incubation, mean of 3 (SD); for TEAC: FRAP, Trolox equivalent, (SD)
Method: as §1
Tableau III - Mesure de la capacité antioxydante en milieu aqueux par la méthode FRAP pour 10 minutes d'incubation (d'après Pulido et al., 2000).

[3] = values of Pulido et al. (2000); cited from earlier work
[4] = sign only; other natural yellow colourants, source not given; cited from earlier work
cellules TC-7 = assay: Cytotoxicity test, cell viability by neutral red method; format: cell-based; details: for % Témoin / DO Moyenne: 2 h; for % Témoin: cell viability; for DO Moyenne: mean of 5
Method: Cellules TC-7 (sous clone de caco-2) cultivées sur nacelles (membrane en polyéthylène téréphtalate), utilisées à 21 jours de confluence, fournie par Bioprédic International
Emploi des cellules au passage 21.
Pas de solvant utilisé pour la solubilisation des produits à l'essai.
Système réactionnel : cultures de cellules TC-7 incubées en présence des produits à l'essai aux différentes concentrations citées ci-dessus.
Temps d'incubation : 2 heures. [drawing 6] ↑ : incubation des produits à l'essai ? : évaluation des effets Replicate : 5 par concentrations. Température d'incubation : 37°C. Autres conditions : atmosphère humide contenant 5 % de CO2.
Témoin : correspondant aux cellules incubées en absence de produit à l'essai [drawing 8] Replicate : 10
Viabilité cellulaire mesurée selon la méthode du rouge neutre après incubation avec les produits à l'essai : • incubation en présence de rouge neutre pendant 3 heures • lyse des cellules et lecture de la densité optique avec un spectrophotomètre à 540 nm (la densité optique du rouge neutre est proportionnelle au nombre de cellules vivantes).
Expression des résultats : en unités arbitraires de D.O.(densité optique) par échantillon et en pourcentage de variation par rapport au groupe témoin.

[5] = Colorimetric parameters CIE L*a*b* (Minolta CM-3600d spectrophotometer) in Mc Ilvaine buffer; format: physicochemical; design: key to L* : luminosité / a* : axe vert-rouge / b* : axe bleu-jaune: CIE L*a*b* coordinates (illuminant D65, 10° observer)
From the text: Les paramètres de coloration du colorant par rapport à de l'eau distillée (référence) ont été mesurés en solution dans un tampon de M^c Ilvaine (citrate-phosphate) à différents pH (2,2 à 8) et ce, pour plusieurs concentrations.
Les mesures ont été réalisées à l'aide d'un spectrophotomètre Minolta CM-3600d (©1998 Minolta Co., Ltd. Japon) avec la plaque de calibration (Minolta n° 13171008). Le spectrophotomètre équipé d'un logiciel de retraitement SpectraMagic V 3.60G (Cyberchrome Inc Minolta Co. Ltd), a été paramétré pour utiliser l'espace colorimétrique CIE L*a*b (Figure 2), avec l'illuminant D65-10° (D65-A-F2), et l'observateur moyen normalisé 10° CIE 1964 (sensibilité d'un oeil moyen). A partir des valeurs a* et b* nous avons calculé les coordonnées polaires C* = sqrt(((a*))^2 + ((b*))^2) et h = tan g^-1 ((a*)/(b*)) × (180)/(Pi) [formula] Dans la suite du texte nous exploiterons principalement ces coordonnées polaires C* et h, car elles ont chacune une signification colorimétrique : C* est la distance au centre de l'espace et correspond à la saturation de la couleur alors que h est un angle (exprimé ici en degré) qui définit la teinte. A titre indicatif pour la couleur rouge la teinte se situe au voisinage de 0°, pour le jaune environ 90°, pour le vert 180° et pour le bleu 270°. La valeur L* est utilisée telle quelle et exprime la clarté.

[6] = Molar extinction coefficient (UV-visible); format: physicochemical
From the text: Une solution à 20 ppm de ce composéest jaune intense.
Le spectre UV-visible d'une solution de préparation POP a été mesuré pour différents pH entre 2 et 8 (voir figure 1). Des mesures de couleur (chromamètre Minolta) ont également été réalisées dans cette zone de pH. Les résultats détaillés des paramètres colorimétriques sont consignés ci-après.

[7] = Optical density at 420 nm of the esterification reaction medium (colouring capacity); format: physicochemical; details: unpurified POP fraction incubated with acidified alcohol, 50 °C, 1 h
From the text: Le volume d'alcool est ajusté de façon à avoir une concentration finale en fraction POP de 1 g.L^-1. Les alcools suivants ont été testés : méthanol, propanol-1, propanol-2, butanol-1, butanol-3, hexanol-1, octanol-1.
Confirmation de la conversion en esters : la formation des esters correspondant a été montrée par HPLC couplée à la spectrométrie de masse en mode négatif et avec également en série une détection à 420 nm (jaune). […] Tableau I: Temps de rétention chromatographique, ions pseudo-moléculaires et rendements de conversion du composé de formule I-b-1 et de ses dérivés estérifiés.

[8] = 5 mg/L, pH 3, tampon de Mc Ilvaine
[9] = 10 mg/L, pH 3, tampon de Mc Ilvaine
[10] = 20 mg/L, pH 3, tampon de Mc Ilvaine
[11] = 40 mg/L, pH 3, tampon de Mc Ilvaine
[12] = 100 mg/L, pH 3, tampon de Mc Ilvaine
[13] = pH 2,2, env. 20 mg/L, tampon de Mc Ilvaine
[14] = pH 3, env. 20 mg/L, tampon de Mc Ilvaine
[15] = pH 4, env. 20 mg/L, tampon de Mc Ilvaine
[16] = pH 5, env. 20 mg/L, tampon de Mc Ilvaine
[17] = pH 6, env. 20 mg/L, tampon de Mc Ilvaine
[18] = pH 7, env. 20 mg/L, tampon de Mc Ilvaine
[19] = pH 8, env. 20 mg/L, tampon de Mc Ilvaine

Molecule: O=C(O)CCc1cc(O)c(O)cc1-c1c(O)cc(O)cc1C1O[C@H](CO)[C@@H](O)[C@H](O)[C@H]1O (stereo partly drawn) [I-a-1, acide 3-(4,5,4',6'-tetrahydroxy-2'-glucosyl-biphenyl-2-yl)-propionique]
- TEAC (Trolox équivalent antioxidant capacity) [1]: 0,78
- capacité antioxydante, fold over phloridzine ([1]; overall conclusion from DPPH and FRAP): 10 fois
- capacité antioxydante [1]: capacité antioxydante importante
- EC1 [2]: 477 (15) µmol/L

Molecule: Cc1c(C)c2c(c(C)c1O)CCC(C)(C(=O)O)O2 (stereo not drawn) [Trolox]
- TEAC (Trolox équivalent antioxidant capacity) [1]: 1,00
- TEAC [2]: 1.00 (0.02)
- EC1 [2]: 411 µmol/L and 411 (10) µmol/L
- EC1 [3]: 322

Molecule: Oc1cc(O)c2c(c1)O[C@H](c1ccc(O)c(O)c1)[C@H](O)C2 [(-)-épicatéchine]
- TEAC (Trolox équivalent antioxidant capacity) [1]: 1,12
- TEAC [2]: 1.14 (0.03)
- EC1 [2]: 359 µmol/L and 359 (11) µmol/L
- EC1 [3]: 348

Molecule: O=c1c(O)c(-c2ccc(O)c(O)c2)oc2cc(O)cc(O)c12 [quercétine]
- logP (P coeff. de partage [n-octanol/eau]) [4]: positif

Molecule: O=C1O[C@H]([C@@H](O)CO)C(O)=C1O [Vitamine C, acide ascorbique]
- TEAC (Trolox équivalent antioxidant capacity) [1]: 0,98
- TEAC [2]: 1.03 (0.02)
- EC1 [2]: 400 (9) µmol/L
- EC1 ([2]; listed as vitamine C): 400 µmol/L
- EC1 [3]: 392

Molecule: O=C(CCc1ccc(O)cc1)c1c(O)cc(O)cc1O[C@@H]1O[C@H](CO)[C@@H](O)[C@H](O)[C@H]1O [Phloridzine, phloridzine, reference compound]
- TEAC (Trolox équivalent antioxidant capacity) [1]: 0,09
- capacité antioxydante [1]: très faible
- TEAC [2]: 0.08 (0.00)

Molecule: COc1cc(/C=C/C(=O)CC(=O)/C=C/c2ccc(O)c(OC)c2)ccc1O [curcumine]
- logP (P coeff. de partage [n-octanol/eau]) [4]: positif

Molecule: acide 3-(4'-hydroxy-2'-glucosyl-4,5-dioxo-3,6-dihydro-2H-dibenzofuran-2-yl)-propionique [I-b-1]
- TEAC (Trolox équivalent antioxidant capacity) [1]: 0,09
- capacité antioxydante [1]: faible capacité antioxydante
- % Témoin (cellules TC-7; 20 µM): 101%
- DO Moyenne (cellules TC-7; 20 µM): 0,489
- % Témoin (cellules TC-7; 100 µM): 104%
- DO Moyenne (cellules TC-7; 100 µM): 0,504
- % Témoin (cellules TC-7; 200 µM): 96%
- DO Moyenne (cellules TC-7; 200 µM): 0,467
- effet sur la viabilité cellulaire (cellules TC-7; 1000 µM): une légère diminution de la viabilité cellulaire
- % Témoin (cellules TC-7; 1000 µM): 104%
- DO Moyenne (cellules TC-7; 1000 µM): 0,504
- % Témoin (cellules TC-7; 2000 µM): 93%
- DO Moyenne (cellules TC-7; 2000 µM): 0,448
- effet sur la viabilité cellulaire (cellules TC-7; at the tested concentrations (20-2000 µM)): n'a pas eu d'effet sur la viabilité cellulaire
- effet sur la viabilité cellulaire (cellules TC-7; jusqu'à 200 µM): Aucun effet inhibiteur de référence n'a été noté
- L* : luminosité [5, 8]: 99,6
- Teinte CIE [5, 8]: 3,5
- a* : axe vert-rouge [5, 8]: -4,6
- b* : axe bleu-jaune [5, 8]: 11,5
- L* : luminosité [5, 9]: 99,3
- Teinte CIE [5, 9]: 6,7
- a* : axe vert-rouge [5, 9]: -8,5
- b* : axe bleu-jaune [5, 9]: 22,8
- L* : luminosité [5, 10]: 98,7
- Teinte CIE [5, 10]: 11,1
- a* : axe vert-rouge [5, 10]: -13,6
- b* : axe bleu-jaune [5, 10]: 41,5
- L* : luminosité [5, 11]: 97,9
- Teinte CIE [5, 11]: 14,3
- a* : axe vert-rouge [5, 11]: -17,7
- b* : axe bleu-jaune [5, 11]: 67,1
- L* : luminosité [5, 12]: 96,5
- Teinte CIE [5, 12]: 10,4
- a* : axe vert-rouge [5, 12]: -17,8
- b* : axe bleu-jaune [5, 12]: 96,0
- L* : luminosité [5, 13]: 98,7
- Teinte CIE [5, 13]: 11,2
- a* : axe vert-rouge [5, 13]: -13,5
- b* : axe bleu-jaune [5, 13]: 40,7
- L* : luminosité [5, 14]: 98,5
- Teinte CIE [5, 14]: 11,0
- a* : axe vert-rouge [5, 14]: -13,4
- b* : axe bleu-jaune [5, 14]: 41,1
- L* : luminosité [5, 15]: 98,4
- Teinte CIE [5, 15]: 10,2
- a* : axe vert-rouge [5, 15]: -13,2
- b* : axe bleu-jaune [5, 15]: 42,3
- L* : luminosité [5, 16]: 97,5
- Teinte CIE [5, 16]: 5,9
- a* : axe vert-rouge [5, 16]: -11,4
- b* : axe bleu-jaune [5, 16]: 46,7
- L* : luminosité [5, 17]: 93,5
- Teinte CIE [5, 17]: -20,5
- a* : axe vert-rouge [5, 17]: -0,1
- b* : axe bleu-jaune [5, 17]: 57,7
- L* : luminosité [5, 18]: 88,1
- Teinte CIE [5, 18]: -63,5
- a* : axe vert-rouge [5, 18]: 16,3
- b* : axe bleu-jaune [5, 18]: 71,4
- L* : luminosité [5, 19]: 87,1
- Teinte CIE [5, 19]: -71,8
- a* : axe vert-rouge [5, 19]: 19,5
- b* : axe bleu-jaune [5, 19]: 72,2
- Teinte CIE ([5]; pH inférieur à 5-6 (yellow)): 10
- Teinte CIE ([5]; pH supérieurs (orange)): -50
- coefficient d'extinction molaire ([6]; 420 nm à pH 3, estimated): 17400 mol⁻¹ cm⁻¹
- coefficient d'extinction molaire ε ([6]; pH 3): 17 400 DO.mol^-1.L^-2.cm^-1
- DO 420 nm (jaune) du milieu réactionnel dilué à 0,1 g/l [7]: 0,973
